The values below come from paper PMC8165160, “Substrate Specificities and Inhibition Pattern of the Solute Carrier Family 10 Members NTCP, ASBT and SOAT” (Frontiers in Molecular Biosciences, 2021).

Like-named read-outs stand apart in the source and are kept apart here.

The target of one assay is T1, ASBT (Homo sapiens, UniProt Q12908).
T1 construct: The full-length open reading frames of NTCP, ASBT, and SOAT were cloned; expressed in transfected cells; host or cells: Flp-In T-REX HEK293 (ASBT-HEK293), tetracycline-induced
T1 sequence (Q12908 1-348): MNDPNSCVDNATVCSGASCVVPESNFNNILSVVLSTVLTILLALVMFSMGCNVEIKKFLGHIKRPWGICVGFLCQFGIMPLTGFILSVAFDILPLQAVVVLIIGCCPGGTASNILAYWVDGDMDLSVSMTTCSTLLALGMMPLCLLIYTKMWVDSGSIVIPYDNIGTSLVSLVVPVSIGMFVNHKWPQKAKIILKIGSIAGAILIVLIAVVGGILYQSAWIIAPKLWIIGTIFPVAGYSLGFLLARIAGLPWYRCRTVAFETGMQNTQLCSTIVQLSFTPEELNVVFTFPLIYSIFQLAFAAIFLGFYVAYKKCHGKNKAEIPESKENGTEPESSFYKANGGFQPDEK
Nature of the assay: Transport inhibition in ASBT-HEK293 cells. The class given is cell-based. The following applies: triterpenoid inhibitors, 10 min after 5 min preincubation. As for the experimental part:
(§1) Cells were washed three times with PBS and were preincubated with the respective inhibitor in sodium transport buffer for 5 min at 37°C. Uptake was initiated by adding the respective radiolabeled substrate to the well and incubating for a fixed time as indicated in the figures at 37°C. Transport was terminated by removing the transport buffer and washing five-times with ice-cold PBS. Cell monolayers were lysed in 1 N NaOH with 0.1% SDS and the cell-associated radioactivity and protein content was determined as described above. For uptake inhibition with the myr-preS1 peptide the sodium transport buffer contained additionally MEM-amino acid solution (ThermoFisher) at 1:50 dilution.
(§2) All transport or inhibition graphs were generated with GraphPad Prism 6.0 (GraphPad). Determination of IC50 values was done by nonlinear regression analysis using the equation log (inhibitor) vs. response settings. If not stated otherwise in the legends all data represent means ± SD of at least triplicate determinations of representative experiments.
(§3) FIGURE 3 Inhibition of NTCP, ASBT, and SOAT with substrate inhibitors. Transport of [^3H]TC, [^3H]TLC, and [^3H]DHEAS was analyzed in NTCP-HEK293, ASBT-HEK293, and SOAT-HEK293 cells in the presence of the substrate inhibitors TC, TLC, and DHEAS at increasing concentrations ranging from 100 nM till 1000 µM. After 5 min of preincubation with the respective inhibitory compound, 200 nM [^3H]TLC, [^3H]TC or [^3H]DHEAS were added for additional 1 min and the cell lysates were analyzed by liquid scintillation counting. Unspecific uptake of HEK293-FlpIn cells was set to 0%. Carrier-specific uptake without inhibitor was set to 100%.
(§4) Transport of [^3H]TC, [^3H]TLC, and [^3H]DHEAS was analyzed in NTCP-HEK293, ASBT-HEK293, and SOAT-HEK293 cells in the presence of different supposed non-substrate triterpenoid inhibitors as indicated at increasing concentrations ranging from 100 nM till 1000 µM. After 5 min of preincubation with the respective inhibitory compound, 1 µM [^3H]TLC, [^3H]TC or [^3H]DHEAS were added for additional 10 min at 37°C and the cell lysates were analyzed by liquid scintillation counting. Experiments performed without inhibitor were set to 100%. Means of negative controls were subtracted to calculate net transport rates (expressed as percentage of control). Data represent means ± SD of quadruplicate determinations of representative experiments.

The target of assay [1] is T2, SOAT (Homo sapiens, UniProt Q3KNW5).
T2 construct: The full-length open reading frames of NTCP, ASBT, and SOAT were cloned; expressed in transfected cells; host or cells: Flp-In T-REX HEK293 (SOAT-HEK293), tetracycline-induced
T2 sequence (Q3KNW5 1-377): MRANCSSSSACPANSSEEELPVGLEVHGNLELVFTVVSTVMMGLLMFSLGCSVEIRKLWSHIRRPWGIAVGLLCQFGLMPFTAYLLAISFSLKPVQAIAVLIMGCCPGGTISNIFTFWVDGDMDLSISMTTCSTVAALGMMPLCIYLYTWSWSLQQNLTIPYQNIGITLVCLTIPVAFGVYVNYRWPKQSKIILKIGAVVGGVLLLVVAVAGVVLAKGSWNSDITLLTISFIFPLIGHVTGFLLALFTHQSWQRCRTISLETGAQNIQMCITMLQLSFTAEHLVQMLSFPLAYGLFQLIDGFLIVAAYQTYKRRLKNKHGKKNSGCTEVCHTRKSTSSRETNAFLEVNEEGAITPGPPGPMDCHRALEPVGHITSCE
Nature of the assay: Transport inhibition in SOAT-HEK293 cells. It counts as cell-based. The following applies: triterpenoid inhibitors, 10 min after 5 min preincubation. As for the experimental part:
as §1, §2, §3, §4

Another assay concerns HDV. Conditions: in vitro; ref Kirstgen et al., 2020; cited from earlier work.
Assay [2] deals with T2, SOAT. Nature of the assay: Substrate screening: sodium-dependent uptake of radiolabeled compounds in SOAT-HEK293 cells. The following applies: radiolabeled steroid compounds 200 nM, 10 min, SOAT-HEK293, vs sodium-free control. The class given is cell-based. As for the experimental part:
(§5) Stably SLC10 transporter transfected NTCP-HEK293, ASBT-HEK293, SOAT-HEK293 cells and the HEK293-FlpIn maternal cell line were seeded on 24-well plates (if not stated otherwise for individual assays). Well plates were coated with poly-D-lysine prior to seeding of 125,000 cells per well. Cells were grown with 1 ml of standard medium per well with or without tetracycline ([…]) for 72 h to induce carrier expression before respective assays were started. HEK293-FlpIn cells were cultivated with standard medium and served as control.
(§6) Uptake experiments were initiated by replacing the preincubation buffer by 500 μL transport buffer containing the radiolabeled test compound and were performed at 37°C. Transport was terminated by removing the transport buffer and washing five-times with ice-cold PBS. Cell monolayers were lysed in 1 N NaOH with 0.1% SDS and the cell-associated radioactivity was determined by liquid scintillation counting.
(§7) FIGURE 1 Comparative substrate screening for bile acids and sulfated steroids in NTCP-, ASBT-, and SOAT-HEK293 cells. Transport assays were performed with the indicated substrates in NTCP-HEK293, ABST-HEK293, SOAT-HEK293, and HEK293-FlpIn cells. Cells were washed and equilibrated with Na^+-containing transport buffer (filled bars) or with Na^+-free transport buffer (open bars) at 37°C. For uptake, cells were incubated with radiolabeled steroid compounds at a final concentration of 200 nM in Na^+-containing or Na^+-free transport buffer for 10 min. Radiolabeled bile acids were used at 1 µM concentrations and transport was analyzed over 30 min. HEK293-FlpIn cells served as additional controls. After the indicated time intervals, cells were washed with ice-cold PBS, lysed and subjected to liquid scintillation counting. […] 3-OH, trihydroxylated BAs; 2-OH, dihydroxylated BAs; 1-OH, monohydroxylated BAs.

In assay [3] the target is T3, NTCP (Homo sapiens, UniProt Q14973).
T3 sequence (Q14973 1-349): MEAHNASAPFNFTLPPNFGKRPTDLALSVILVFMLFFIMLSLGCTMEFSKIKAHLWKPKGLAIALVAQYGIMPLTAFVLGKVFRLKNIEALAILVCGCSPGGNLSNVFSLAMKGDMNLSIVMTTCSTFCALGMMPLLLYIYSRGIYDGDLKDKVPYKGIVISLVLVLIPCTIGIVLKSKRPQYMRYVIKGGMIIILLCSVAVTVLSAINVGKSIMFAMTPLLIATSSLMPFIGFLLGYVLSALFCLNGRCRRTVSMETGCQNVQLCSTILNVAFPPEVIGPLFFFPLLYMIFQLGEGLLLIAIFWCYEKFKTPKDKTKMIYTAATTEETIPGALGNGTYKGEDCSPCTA
Nature of the assay: Substrate screening: sodium-dependent uptake of radiolabeled compounds in NTCP-HEK293 cells. The class given is cell-based. Details: The full-length open reading frames of NTCP, ASBT, and SOAT were cloned; expressed in transfected cells; host or cells: Flp-In T-REX HEK293 (NTCP-HEK293), tetracycline-induced. Conditions: radiolabeled steroid compounds 200 nM, 10 min, NTCP-HEK293, vs sodium-free control. As for the experimental part: as §5, §6, §7

In assay [4] the target is T3, NTCP. Nature of the assay: Transport kinetics (concentration-dependent uptake) in NTCP-HEK293 cells. It counts as cell-based. Details: The full-length open reading frames of NTCP, ASBT, and SOAT were cloned; expressed in transfected cells; host or cells: Flp-In T-REX HEK293 (NTCP-HEK293), tetracycline-induced. The following applies: uptake via NTCP, 1 min, 37°C. As for the experimental part: as §6
FIGURE 2 NTCP, ASBT, and SOAT transport kinetics. Concentration-dependent uptake was analyzed in NTCP-HEK293, ASBT-HEK293, and SOAT-HEK293 cells for the indicated substrates at increasing substrate concentrations. Stably transfected HEK293 cells were pretreated with 1 μg/ml tetracycline to induce carrier expression. HEK293-FlpIn cells were used as control. Uptake was analyzed for 1 min at 37°C. Afterward, the medium was removed and each cell monolayer was washed and processed to determine the protein content and cell-associated radioactivity. Specific uptake was calculated by subtracting non-specific uptake of the HEK293-FlpIn control cells (open squares) from uptake into carrier-overexpressing HEK293 cells (filled squares) and is shown by broken lines. The values represent means ± SD of duplicate experiments, each with triplicate determinations (n = 6).

In assay [5] the target is T2, SOAT. Details: method as in Geyer et al. (2007). The following applies: uptake via SOAT, same SOAT-HEK293 cell line; ref Geyer et al. (2007); cited from earlier work.
For assay [6], the target named is T3, NTCP. Nature of the assay: Transport inhibition in NTCP-HEK293 cells. The following applies: triterpenoid inhibitors, 10 min after 5 min preincubation.
[7] abbreviates: 1 µM [3H]TC, read-out: ASBT IC50, substrate [3H]TC.
The mark [8] stands for this setting: 1 µM [3H]TLC, read-out: ASBT IC50, substrate [3H]TLC.
Where [9] appears, read: 1 µM [3H]DHEAS, read-out: SOAT IC50, substrate [3H]DHEAS.
Setting [10] is: 1 µM [3H]TLC, read-out: SOAT IC50, substrate [3H]TLC.

In general, IC50 refers to the midpoint of a concentration-inhibition curve. Consider `C=C(C)[C@@H]1CC[C@]2(C(=O)O)CC[C@]3(C)[C@H](CC[C@@H]4[C@@]5(C)CC[C@H](O)C(C)(C)[C@@H]5CC[C@]43C)[C@@H]12` [Betulinic acid], for which the IC50 is > 1000 µM at ASBT (setting [7]), 193 µM at ASBT (setting [8]), 1.2 µM on SOAT [1] (setting [9]) and 9.5 µM on SOAT [1] (setting [10]). Moreover, in the assay with HDV, the “anti-HDV activity in vitro” value is given as “anti-HDV activity”.
Turning to `C[C@]12CC[C@@H]3c4ccc(OS(=O)(=O)O)cc4CC[C@H]3[C@@H]1CCC2=O` [E1S, Estrone-3-sulfate], at SOAT [2], the “Transport activity grading SOAT (mean uptake)” value is recorded as “+ (Mean uptake “+” for values below 10)”. On NTCP [3], the “Transport activity grading NTCP (mean uptake)” value was “++ (“++” for values between 10 and 100)”. Also, on NTCP [4], the “Apparent K m” value is on record as 57.6 ± 11.3 µM and the V max was 2367 ± 170.8 pmol/mg protein/min. For the same molecule, at SOAT [5], the “Apparent K m” value is 12.0 ± 2.3 µM and the V max is 585 ± 34 pmol/mg protein/min.
Consider `C=C(C)[C@@H]1CC[C@]2(CO)CC[C@]3(C)[C@H](CC[C@@H]4[C@@]5(C)CC[C@H](O)C(C)(C)[C@@H]5CC[C@]43C)[C@@H]12` [Betulin], for which the IC50 on ASBT (ASBT IC50, substrate [3H]TC, 1 µM [3H]TC) is > 1000 µM; against ASBT (ASBT IC50, substrate [3H]TLC, 1 µM [3H]TLC), 192 µM; against SOAT [1] (SOAT IC50, substrate [3H]DHEAS, 1 µM [3H]DHEAS), 912 µM; on SOAT [1] (SOAT IC50, substrate [3H]TLC, 1 µM [3H]TLC) it was 50.1 µM.
Take `C=C(C)[C@@H]1CC[C@]2(CO)CC[C@]3(C)[C@H](CC[C@@H]4[C@@]5(C)CC[C@H](OC(=O)/C=C/c6ccc(O)c(O)c6)C(C)(C)[C@@H]5CC[C@]43C)[C@@H]12` [3-O-Caffeoyl betulin]: the IC50 on ASBT (setting [7]) was 499 µM; on ASBT (setting [8]) it was 99.7 µM; on SOAT [1] (setting [9]), 301 µM; on SOAT [1] (setting [10]), 37.8 µM; against NTCP [6] (NTCP IC50, substrate [3H]DHEAS, 1 µM [3H]DHEAS), 49.1 µM; against NTCP [6] (NTCP IC50, substrate [3H]TC, 1 µM [3H]TC), 129 µM. Besides, the IC50 on NTCP [6] (NTCP IC50, substrate [3H]TLC, 1 µM [3H]TLC) is 2.1 µM.
As for Pregnenolone sulfate [PREGS], the “Transport activity grading SOAT (mean uptake)” value at SOAT [2] is given as “+++ (“+++” for values above 100 pmol/mg protein/10 min for sulfated steroid hormones)”. Also, the “Transport activity grading NTCP (mean uptake)” value on NTCP [3] is given as “+++ (“+++” for values above 100 pmol/mg protein/10 min for sulfated steroid hormones)”. At NTCP [4], the “Apparent K m” value amounted to 8.8 ± 2.1 µM and the V max was 1036 ± 69.1 pmol/mg protein/min. At SOAT [5], the “Apparent K m” value is on record as 11.3 ± 3.0 µM and the V max is 2168 ± 134 pmol/mg protein/min.
